Assay: method code SF-AS, from DOI: 10.1021/jm00114a020, PMID: 1920359
Conditions: pH 7.4

Compound | logD
NS(=O)(=O)c1ccc(CCCCCO)cc1 | 1.04
NS(=O)(=O)c1ccc(S(=O)(=O)CCO)cc1 | -0.85
NS(=O)(=O)c1ccc(S(=O)(=O)CCCO)s1 | -0.36
CC(C)(O)CCSc1ccc(S(N)(=O)=O)cc1 | 1.4
NS(=O)(=O)c1ccc(S(=O)(=O)CCCCO)s1 | -0.34
Nc1cc(S(N)(=O)=O)ccc1S(=O)(=O)CCCO | -0.48
NS(=O)(=O)c1ccc(CCCO)cc1 | 0.17
NS(=O)(=O)c1ccc(SCCO)c([N+](=O)[O-])c1 | 0.38
COC(=O)c1cc(S(N)(=O)=O)ccc1S(=O)(=O)CCO | -0.47
NS(=O)(=O)c1ccc(SCCCO)c([N+](=O)[O-])c1 | 0.96
NS(=O)(=O)c1ccc(SCCCO)c(F)c1 | 0.99
NS(=O)(=O)c1ccc(SCCCCCO)cc1 | 1.04
CC(=O)OCCCc1ccc(S(N)(=O)=O)cc1 | 0.98
NS(=O)(=O)c1ccc(SCCCO)s1 | 0.85
CC(=O)OCCCCCc1ccc(S(N)(=O)=O)cc1 | 1.86
CC(=O)OCCCS(=O)(=O)c1ccc(S(N)(=O)=O)s1 | 0.17
Nc1cc(S(N)(=O)=O)ccc1S(=O)(=O)CCO | -0.6
NS(=O)(=O)c1ccc(S(=O)(=O)CCCCO)cc1 | -0.26

Compound | logD
NS(=O)(=O)c1ccc(SCCO)s1 | 0.38
NS(=O)(=O)c1ccc(S(=O)(=O)CCCO)c(F)c1 | -0.41
CC(=O)OCCS(=O)(=O)c1ccc(S(N)(=O)=O)s1 | 0.11
NS(=O)(=O)c1ccc(SCCCO)cc1 | 0.8
COC(=O)c1cc(S(N)(=O)=O)ccc1S(=O)(=O)CCCO | -0.3
NS(=O)(=O)c1ccc(CCCCO)cc1 | 0.57
NS(=O)(=O)c1ccc(S(=O)(=O)CCCO)c([N+](=O)[O-])c1 | -0.05
COCC(=O)OCCCS(=O)(=O)c1ccc(S(N)(=O)=O)s1 | -0.14
NS(=O)(=O)c1ccc(SCCCCO)cc1 | 0.93
NS(=O)(=O)c1ccc(SCCCCO)c(F)c1 | 1.28
NS(=O)(=O)c1ccc(S(=O)(=O)CCCO)cc1 | -0.64
NS(=O)(=O)c1ccc(S(=O)(=O)CCO)c(F)c1 | -0.6
NS(=O)(=O)c1ccc(S(=O)(=O)CCO)s1 | -0.54
NS(=O)(=O)c1ccc(SCCCCO)s1 | 0.95
NS(=O)(=O)c1ccc(SCCCO)c(Cl)c1 | 1.59
NS(=O)(=O)c1ccc(SCCO)c(F)c1 | 0.72
CC(C)(O)CCS(=O)(=O)c1ccc(S(N)(=O)=O)cc1 | -0.09
NS(=O)(=O)c1ccc(SCCO)cc1 | 0.36

— the SangsterLogP compilation
